Reference: patent US6878742B2, “Heterocyclic sulfonamide inhibitors of beta amyloid production” (Wyeth, priority 2000, dated 2005)
Where “and” joins values, the source holds several entries; their conditions need not be identical. Identical values can stand only once.

System: amyloid precursor protein (APP) proteolysis
Experiment: Repressor Release Assay (RRA)
Format: cell-based
Conditions: luciferase activity over diluent control; for fold induction at 10 µg/mL / fold induction at 20 µg/mL / fold induction at 1 µg/mL / fold induction at 3 µg/mL: read-out: APPI Fold Increase
Procedure: The beta amyloid inhibitory activity of many of the compounds of the present invention has been determined using the Repressor Release Assay (RRA). See, Table 23 below. A compound is considered active in RRA if it leads to at least a 1.5 fold increase in luciferase activity at 20 μM and is non-toxic.
The compounds generated as described in Examples 1 through 220 were tested in the RRA in accordance with published techniques [Shuey, D. J., Sheiffele, P., Jones, D., Cockett, M. I., and Quinet, E. M. (1999), “Repressor release: a useful tool for monitoring amyloid precursor protein (APP) proteolysis in mammalian cells”, Society for Neuroscience Abstracts, Vol. 25, 29th Annual Meeting of Society for Neuroscience, Miami Beach, Fla., Oct. 23-28, 1999]. Briefly, this assay is performed as follows.
CHO-K1 cells are cultured in whole DMEM media (DMEM—High Glucose with 10% fetal bovine serum, 1% Non-essential Amino Acids, and 1% Penicillin-Streptomycin) at 37° C. with 5% CO2. Two million cells are plated into 10-cm dishes 24 hrs prior to transfection.
Transient transfections are completed as recommended by Gibco BRL using their Lipofectamine Plus system. First, 6 μg of pRSVO-luc and 6 μg of APP-lacI construct DNA are added to 460 μL Opti-Mem transfection media and incubated with 30 μL Plus reagent for 15 minutes. Then, a lipid mixture of 40 μL Lipofectamine reagent and 460 μL Opti-Mem transfection media is incubated with the DNA-Plus reagent mixture for 15 minutes. During the DNA-lipid incubation, the CHO-K1 cells are washed once and covered in 5.0 mL DMEM media without Penicillin-Streptomycin. The DNA-lipid preparation is then layered onto these cells and incubated at 37° C. overnight.
One and one half million transfected cells per well (100 μL total volume) are plated into sterile, opaque Packard 96-well Cultur-Plates in clear DMEM whole media (DMEM—without phenol red) and incubated at 37° C. with 5% CO2 for 3-5 hours.
Compounds are diluted using two different protocols; one protocol is used for compounds supplied neat (weighed powder in vial) and the other protocol is used for compounds supplied in solution (20 mM in DMSO in 96-well plates). For both protocols, 25 mM Hepes and 25 mM Hepes/1% DMSO are prepared fresh to be used as diluent. The Hepes/DMSO is used as the diluent control on all experimental plates.
The following table depicts the steps for compound dilution (please note that the last step is the addition of compound to cells/media in tissue culture plate):
Because some compounds arrive in 96-well format at 20 mM, the following represents the protocol for their dilution (note that an average molecular weight of these compounds was used to calculate these dilutions and as above, the last step is the addition of compound to cells/media in tissue culture plate):
Once compounds are diluted, they are applied in duplicate on cells in tissue culture plates (prepared above). Cells are incubated with compound at 37° C. with 5% CO2 for an additional 36-48 hours.
Luciferase assays (LucLite reagent, Packard) are performed and are read on a Packard TopCount instrument. Media is removed from each 96-well plate and replaced with 100 μL PBS per well (with Mg^2+ and Ca^2+). An equal volume (100 μL) of the LucLite lysis/substrate buffer is added to each well and the plates are sealed and mixed in the dark on a rotary shaker for 15-30 minutes at room temperature. Luciferase readings are then taken on the TopCount instrument. Measurements are expressed as relative light units (RLU) and are calculated and analyzed in MS Excel as follows.
A compound is considered active in RRA if it leads to at least a 1.5 fold increase in luciferase activity at 20 μM and is non-toxic, as determined by loss of signal (≦0.75 fold increase). Fold increase is the amount of luciferase activity (measured in relative light units) over diluent control. SEM represents the standard error of the mean for fold increase (not shown).

5-bromo-N-{(S,R)-2-hydroxy-1-[(S)-1-methylpropyl]pent-4-enyl}thiophene-2-sulfonamide [Example 195]
APPI Fold Increase (Conc 20 μg/mL): 4.2 fold and 6.7 fold

5-bromo-N-{(S,S)-1-[(S)-1-hydroxyethyl]-2-methylbutyl}thiophene-2-sulfonamide [Example 190]
APPI Fold Increase (Conc 20 μg/mL): 4.4 fold and 2.6 fold

5-bromo-N-{(S,S)-1-[R-1-hydroxyethyl]-2-methylbutyl}thiophene-2-sulfonamide [Example 191]
APPI Fold Increase (Conc 20 μg/mL): 5.4 fold and 4.8 fold

5-bromo-N-{(S,S)-2-hydroxy-1-[(S)-1-methylpropyl]pent-4-enyl}thiophene-2-sulfonamide [Example 194]
APPI Fold Increase (Conc 20 μg/mL): 9 fold and 5.3 fold

5-chloro-N-{(S,R)-2-hydroxy-1-[(S)-1-methylpropyl]pent-4-enyl}thiophene-2-sulfonamide [Example 189]
APPI Fold Increase (Conc 20 μg/mL): 8.1 fold and 7.9 fold and 7.2 fold and 4.4 fold

5-chloro-N-{(S,S)-1-[(S)-1-hydroxyethyl]-2-methylbutyl}thiophene-2-sulfonamide [Example 184]
APPI Fold Increase (Conc 20 μg/mL): 3.7 fold and 2.7 fold

5-chloro-N-{(S,S)-2-hydroxy-1-[(S)-1-methylpropyl]pent-4-enyl}thiophene-2-sulfonamide [Example 188]
APPI Fold Increase (Conc 20 μg/mL): 6.3 fold and 3.6 fold

CC(c1ccccc1)C(CO)NS(=O)(=O)c1ccc(Cl)s1 (mixture of isomers) [Example 14]
APPI Fold Increase (Conc 3 μg/mL): 1.87 fold and 3.33 fold
APPI Fold Increase (Conc 10 μg/mL): 3.45 fold

CCCCCCC(O)C(NS(=O)(=O)c1ccc(Cl)s1)C(C)CC (mixture of isomers) [Example 121]
APPI Fold Increase (Conc 10 μg/mL): 1.74 fold and 1.5 fold and 1.56 fold

CCCCCC(O)C(NS(=O)(=O)c1ccc(Cl)s1)C(C)CC (mixture of isomers) [Example 122]
APPI Fold Increase (Conc 10 μg/mL): 1.68 fold and 1.8 fold

CCCCC(O)C(NS(=O)(=O)c1ccc(Cl)s1)C(C)CC (mixture of isomers) [Example 123]
APPI Fold Increase (Conc 10 μg/mL): 2.14 fold and 1.76 fold

CCC(C)C(NS(=O)(=O)c1ccc(Cl)s1)C(O)CC(C)C (mixture of isomers) [Example 126]
APPI Fold Increase (Conc 10 μg/mL): 5.25 fold and 3.31 fold

C=CCC(O)C(NS(=O)(=O)c1ccc(Cl)s1)C(C)CC (mixture of isomers) [Example 128]
APPI Fold Increase (Conc 1 μg/mL): 1.52 fold
APPI Fold Increase (Conc 3 μg/mL): 2.48 fold
APPI Fold Increase (Conc 10 μg/mL): 5.62 fold and 3.86 fold
APPI Fold Increase (Conc 20 μg/mL): 5.9 fold

CCC(C)C(NS(=O)(=O)c1ccc(Cl)s1)C(O)CC (mixture of isomers) [Example 129]
APPI Fold Increase (Conc 3 μg/mL): 1.61 fold
APPI Fold Increase (Conc 10 μg/mL): 7.43 fold and 4.59 fold

C=C(C)C(O)C(NS(=O)(=O)c1ccc(Cl)s1)C(C)CC (mixture of isomers) [Example 133]
APPI Fold Increase (Conc 10 μg/mL): 2.51 fold and 1.68 fold

CC=C(C)C(O)C(NS(=O)(=O)c1ccc(Cl)s1)C(C)CC (mixture of isomers) [Example 135]
APPI Fold Increase (Conc 10 μg/mL): 1.93 fold and 1.75 fold

CCCNC1CCC(C(CO)NS(=O)(=O)c2ccc(Cl)s2)CC1 (mixture of isomers) [Example 214]
APPI Fold Increase (Conc 20 μg/mL): 2.1 fold

CC(c1ccccc1)C(CO)NS(=O)(=O)c1ccc(Br)s1 (racemic) [Example 15, 5-bromo-N-[1-(hydroxymethyl)-2-phenylpropyl]thiophene-2-sulfonamide]
fold induction at 10 µg/mL (Conc 10 μg/mL): 3.08

CCCCC(CO)NS(=O)(=O)c1ccc(Cl)s1 (racemic) [Example 91, 5-chloro-N-[1-(hydroxymethyl)pentyl]thiophene-2-sulfonamide]
fold induction at 20 µg/mL (Conc 20 μg/mL): 2

CCCC(CO)NS(=O)(=O)c1ccc(Cl)s1 (racemic) [Example 97, 5-chloro-N-[1-(hydroxymethyl)butyl]thiophene-2-sulfonamide]
fold induction at 20 µg/mL (Conc 20 μg/mL): 1.8

CCCCC(CO)NS(=O)(=O)c1ccc(Br)s1 (racemic) [Example 106, 5-bromo-N-[1-(hydroxymethyl)pentyl]thiophene-2-sulfonamide]
fold induction at 20 µg/mL (Conc 20 μg/mL): 2.4

CCCC(CO)NS(=O)(=O)c1ccc(Br)s1 (racemic) [Example 112, 5-bromo-N-[1-(hydroxymethyl)butyl]thiophene-2-sulfonamide]
fold induction at 20 µg/mL (Conc 20 μg/mL): 1.6

CC[C@H](C)[C@@H](CO)NS(=O)(=O)c1sc(Cl)cc1Br [Example 1, 3-Bromo-5-chloro-N-[(1S,2S)-1-(hydroxymethyl)-2-methylbutyl]thiophene-2-sulfonamide]
fold induction at 10 µg/mL (Conc 10 μg/mL): 1.57

CC[C@H](C)[C@@H](CO)NS(=O)(=O)c1ccc(Br)s1 [Example 2]
APPI Fold Increase (Conc 1 μg/mL): 1.79 fold and 1.54 fold
APPI Fold Increase (Conc 3 μg/mL): 2.96 fold and 2.34 fold
APPI Fold Increase (Conc 10 μg/mL): 4.26 fold and 3.2 fold and 3.06 fold
APPI Fold Increase (Conc 20 μg/mL): 4.5 fold and 5.5 fold and 6.3 fold

CC[C@H](C)[C@@H](CO)NS(=O)(=O)c1cc(Br)c(Cl)s1 [Example 3]
APPI Fold Increase (Conc 10 μg/mL): 1 fold

CC[C@H](C)[C@@H](CO)NS(=O)(=O)c1ccc(Cl)s1 [Example 4]
APPI Fold Increase (Conc 1 μg/mL): 2.22 fold
APPI Fold Increase (Conc 3 μg/mL): 2.98 fold and 3.52 fold
APPI Fold Increase (Conc 10 μg/mL): 3.3 fold and 5.03 fold
APPI Fold Increase (Conc 20 μg/mL): 4 fold and 5.4 fold and 3.3 fold and 5.1 fold

CC[C@H](C)[C@@H](CO)NS(=O)(=O)c1cc(Cl)sc1Cl [Example 5]
APPI Fold Increase (Conc 0.3 μg/mL): 0.9 fold
APPI Fold Increase (Conc 1 μg/mL): 0.9 fold
APPI Fold Increase (Conc 3 μg/mL): 1.1 fold
APPI Fold Increase (Conc 10 μg/mL): 1.1 fold

CC[C@H](C)[C@@H](CO)NS(=O)(=O)c1cccs1 [Example 7, N-[(1S,2S)-1-(hydroxymethyl)-2-methylbutyl]thiophene-2-sulfonamide]
APPI Fold Increase (Conc 20 μg/mL): 3.2 fold

CC(C)[C@@H](CO)NS(=O)(=O)c1ccc(Cl)s1 [Example 8, 5-Chloro-N-[(1S)-1-(hydroxymethyl)-2-methylpropyl]thiophene-2-sulfonamide]
fold induction at 1 µg/mL (Conc 1 μg/mL): 1.5
fold induction at 3 µg/mL (Conc 3 μg/mL): 2.5
fold induction at 10 µg/mL (Conc 10 μg/mL): 3.7
fold induction at 20 µg/mL (Conc 20 μg/mL): 3.3

O=S(=O)(N[C@H](CO)C1CCCCC1)c1ccc(Cl)s1 [Example 12, 5-Chloro-N-[(1S)-1-cyclohexyl-2-hydroxyethyl]thiophene-2-sulfonamide]
fold induction at 1 µg/mL (Conc 1 μg/mL): 2.58
fold induction at 3 µg/mL (Conc 3 μg/mL): 3.07
fold induction at 10 µg/mL (Conc 10 μg/mL): 4.2
fold induction at 20 µg/mL (Conc 20 μg/mL): 4.3

O=S(=O)(NC(CO)C1CCCCC1)c1ccc(Br)s1 (centres unmarked) [Example 13]
APPI Fold Increase (Conc 1 μg/mL): 2.17 fold
APPI Fold Increase (Conc 3 μg/mL): 4.02 fold
APPI Fold Increase (Conc 10 μg/mL): 3.94 fold
